Measured values: ChEMBL document CHEMBL3769309, “Design, synthesis and biological evaluation of bisthiazole-based trifluoromethyl ketone derivatives as potent HDAC inhibitors with improved cellular efficacy” (Eur J Med Chem, 2016)
Each block holds one molecule with its values, some of them ahead of it.

How the values were obtained:
Histone deacetylase 4 = Histone deacetylase 4 (Homo sapiens, UniProt P56524); test: Inhibition of full length His6-tagged GST-fused recombinant human HDAC4 expressed in High5 insect cells using Ac-Lys-Tyr-Lys (e-acetyl)-AMC as substrate after 24 hrs by fluorescence assay; type: cell-based
Sequence of Histone deacetylase 4 (P56524 whole entry, the tested form may be a part): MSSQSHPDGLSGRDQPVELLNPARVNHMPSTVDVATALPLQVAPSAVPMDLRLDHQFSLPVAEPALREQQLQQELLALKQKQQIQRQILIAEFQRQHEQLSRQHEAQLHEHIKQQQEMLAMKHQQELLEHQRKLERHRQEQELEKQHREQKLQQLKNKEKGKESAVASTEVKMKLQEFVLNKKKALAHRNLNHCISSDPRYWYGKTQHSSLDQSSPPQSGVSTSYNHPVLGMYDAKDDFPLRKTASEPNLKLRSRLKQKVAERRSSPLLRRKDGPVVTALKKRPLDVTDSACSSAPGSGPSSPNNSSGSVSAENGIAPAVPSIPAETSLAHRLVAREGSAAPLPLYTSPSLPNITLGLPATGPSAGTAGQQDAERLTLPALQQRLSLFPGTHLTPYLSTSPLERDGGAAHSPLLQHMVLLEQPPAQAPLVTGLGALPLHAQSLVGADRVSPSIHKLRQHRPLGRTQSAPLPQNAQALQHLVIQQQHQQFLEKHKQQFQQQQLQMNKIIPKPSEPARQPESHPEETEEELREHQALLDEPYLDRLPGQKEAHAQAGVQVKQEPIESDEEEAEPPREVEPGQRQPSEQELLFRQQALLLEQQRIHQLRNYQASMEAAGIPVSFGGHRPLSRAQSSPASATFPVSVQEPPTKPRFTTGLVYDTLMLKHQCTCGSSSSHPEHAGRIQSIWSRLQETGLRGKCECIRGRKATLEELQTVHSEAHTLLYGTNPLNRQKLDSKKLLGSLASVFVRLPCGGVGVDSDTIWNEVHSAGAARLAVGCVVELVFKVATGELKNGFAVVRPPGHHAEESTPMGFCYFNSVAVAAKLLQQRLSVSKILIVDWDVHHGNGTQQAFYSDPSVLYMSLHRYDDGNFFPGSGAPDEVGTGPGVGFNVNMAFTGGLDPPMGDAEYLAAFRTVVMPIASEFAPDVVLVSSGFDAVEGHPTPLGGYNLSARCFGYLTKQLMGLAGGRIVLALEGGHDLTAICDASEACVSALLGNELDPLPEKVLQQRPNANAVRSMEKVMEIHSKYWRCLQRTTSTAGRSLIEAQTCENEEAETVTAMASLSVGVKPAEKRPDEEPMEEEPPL

RPMI-8226 [1] = test: Induction of apoptosis in human RPMI8226 cells assessed as late apoptotic cells at 0.3 uM after 48 hrs by annexin V-FITC/propidium iodide staining-based flow cytometry (reference value: 4.4%); type: functional
RPMI-8226 [2] = test: Induction of apoptosis in human RPMI8226 cells assessed as viable cells at 1 uM after 48 hrs by annexin V-FITC/propidium iodide staining-based flow cytometry (reference value: 87.2%); type: functional; conditions: RPMI-8226, 48 h, read-out: Activity
[3] = Antiproliferative activity against human Mino cells after 72 hrs by CellTiter 96 aqueous non-radioactive cell proliferation assay; type: functional, cell-based
RPMI-8226 [4] = test: Induction of apoptosis in human RPMI8226 cells assessed as late apoptotic cells at 1 uM after 48 hrs by annexin V-FITC/propidium iodide staining-based flow cytometry (reference value: 4.4%); type: functional
LP-1 = test: Antiproliferative activity against human LP-1 cells after 72 hrs by CellTiter 96 aqueous non-radioactive cell proliferation assay; type: functional, cell-based; conditions: LP-1, 72 h
RPMI-8226 [5] = test: Induction of apoptosis in human RPMI8226 cells assessed as early apoptotic cells at 0.3 uM after 48 hrs by annexin V-FITC/propidium iodide staining-based flow cytometry (reference value: 6.3%); type: functional
RPMI-8226 [6] = test: cells; type: functional; conditions: Homo sapiens, RPMI-8226, 48 h
RPMI-8226 [7] = test: Induction of apoptosis in human RPMI8226 cells assessed as dead cells at 0.3 uM after 48 hrs by annexin V-FITC/propidium iodide staining-based flow cytometry (reference value: 2%); type: functional
[8] = Antiproliferative activity against human RPMI8226 cells after 72 hrs by CellTiter 96 aqueous non-radioactive cell proliferation assay; type: functional, cell-based; conditions: RPMI-8226, 72 h
RPMI-8226 [9] = test: Induction of apoptosis in human RPMI8226 cells assessed as increase in cleaved PARP level after 24 hrs by Western immunoblotting method; type: functional, cell-based
RPMI-8226 [10] = test: Induction of apoptosis in human RPMI8226 cells assessed as viable cells at 0.3 uM after 48 hrs by annexin V-FITC/propidium iodide staining-based flow cytometry (reference value: 87.2%); type: functional; conditions: RPMI-8226, 48 h, read-out: Activity
[11] = Antiproliferative activity against human JeKo1 cells after 72 hrs by CellTiter 96 aqueous non-radioactive cell proliferation assay; type: functional, cell-based; conditions: JeKo-1, 72 h
[12] = Antiproliferative activity against human MM1S cells after 72 hrs by CellTiter 96 aqueous non-radioactive cell proliferation assay; type: functional, cell-based; conditions: MM1.S
RPMI-8226 [13] = test: Induction of apoptosis in human RPMI8226 cells assessed as dead cells at 1 uM after 48 hrs by annexin V-FITC/propidium iodide staining-based flow cytometry (reference value: 2%); type: functional
RPMI-8226 [14] = test: Induction of apoptosis in human RPMI8226 cells assessed as early apoptotic cells at 1 uM after 48 hrs by annexin V-FITC/propidium iodide staining-based flow cytometry (reference value: 6.3%); type: functional
[15] = Antiproliferative activity against human NCI-H929 cells after 72 hrs by CellTiter 96 aqueous non-radioactive cell proliferation assay; type: functional, cell-based; conditions: NCI-H929, 72 h
Histone deacetylase 3 = Histone deacetylase 3 (Homo sapiens, UniProt O15379); test: Inhibition of full length His6-tagged GST-fused recombinant human HDAC3 expressed in High5 insect cells using Ac-Lys-Tyr-Lys (e-acetyl)-AMC as substrate after 24 hrs by fluorescence assay; type: cell-based
Sequence of Histone deacetylase 3 (O15379 whole entry, the tested form may be a part): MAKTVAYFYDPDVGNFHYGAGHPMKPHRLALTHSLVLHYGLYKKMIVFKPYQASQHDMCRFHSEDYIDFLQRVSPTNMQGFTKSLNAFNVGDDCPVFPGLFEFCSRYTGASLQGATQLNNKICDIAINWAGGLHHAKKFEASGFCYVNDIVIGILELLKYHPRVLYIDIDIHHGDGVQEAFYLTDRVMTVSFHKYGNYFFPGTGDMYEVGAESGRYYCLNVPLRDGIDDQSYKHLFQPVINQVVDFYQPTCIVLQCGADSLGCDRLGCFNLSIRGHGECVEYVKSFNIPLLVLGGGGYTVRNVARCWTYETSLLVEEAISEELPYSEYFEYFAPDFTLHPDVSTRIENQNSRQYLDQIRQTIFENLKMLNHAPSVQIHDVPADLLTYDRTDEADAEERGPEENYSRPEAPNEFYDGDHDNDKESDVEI

Histone deacetylase 1 = Histone deacetylase 1 (Homo sapiens, UniProt Q13547); test: Inhibition of full length His6-tagged GST-fused recombinant human HDAC1 expressed in High5 insect cells using Ac-Lys-Tyr-Lys (e-acetyl)-AMC as substrate after 24 hrs by fluorescence assay; type: cell-based
Sequence of Histone deacetylase 1 (Q13547 whole entry, the tested form may be a part): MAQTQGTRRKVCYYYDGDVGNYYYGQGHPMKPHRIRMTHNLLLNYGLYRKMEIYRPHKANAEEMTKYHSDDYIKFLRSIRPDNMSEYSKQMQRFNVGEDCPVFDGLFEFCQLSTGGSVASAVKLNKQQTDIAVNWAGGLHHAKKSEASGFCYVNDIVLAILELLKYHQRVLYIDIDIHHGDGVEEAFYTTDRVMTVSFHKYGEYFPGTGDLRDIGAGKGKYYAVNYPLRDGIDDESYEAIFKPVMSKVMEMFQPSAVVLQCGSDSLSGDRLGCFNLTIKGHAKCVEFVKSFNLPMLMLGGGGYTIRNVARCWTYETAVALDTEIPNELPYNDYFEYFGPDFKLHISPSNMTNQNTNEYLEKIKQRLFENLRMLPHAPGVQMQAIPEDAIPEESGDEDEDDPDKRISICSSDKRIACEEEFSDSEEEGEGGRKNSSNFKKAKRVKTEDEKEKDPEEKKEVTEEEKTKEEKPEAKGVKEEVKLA

[16] = biological target: T1, Protein deacetylase HDAC6 (Homo sapiens, UniProt Q9UBN7); test: Inhibition of full length His6-tagged GST-fused recombinant human HDAC6 expressed in High5 insect cells using Boc-Lys (e-acetyl)-AMC as substrate after 3 hrs by fluorescence assay; type: cell-based
T1 sequence (Q9UBN7 whole entry): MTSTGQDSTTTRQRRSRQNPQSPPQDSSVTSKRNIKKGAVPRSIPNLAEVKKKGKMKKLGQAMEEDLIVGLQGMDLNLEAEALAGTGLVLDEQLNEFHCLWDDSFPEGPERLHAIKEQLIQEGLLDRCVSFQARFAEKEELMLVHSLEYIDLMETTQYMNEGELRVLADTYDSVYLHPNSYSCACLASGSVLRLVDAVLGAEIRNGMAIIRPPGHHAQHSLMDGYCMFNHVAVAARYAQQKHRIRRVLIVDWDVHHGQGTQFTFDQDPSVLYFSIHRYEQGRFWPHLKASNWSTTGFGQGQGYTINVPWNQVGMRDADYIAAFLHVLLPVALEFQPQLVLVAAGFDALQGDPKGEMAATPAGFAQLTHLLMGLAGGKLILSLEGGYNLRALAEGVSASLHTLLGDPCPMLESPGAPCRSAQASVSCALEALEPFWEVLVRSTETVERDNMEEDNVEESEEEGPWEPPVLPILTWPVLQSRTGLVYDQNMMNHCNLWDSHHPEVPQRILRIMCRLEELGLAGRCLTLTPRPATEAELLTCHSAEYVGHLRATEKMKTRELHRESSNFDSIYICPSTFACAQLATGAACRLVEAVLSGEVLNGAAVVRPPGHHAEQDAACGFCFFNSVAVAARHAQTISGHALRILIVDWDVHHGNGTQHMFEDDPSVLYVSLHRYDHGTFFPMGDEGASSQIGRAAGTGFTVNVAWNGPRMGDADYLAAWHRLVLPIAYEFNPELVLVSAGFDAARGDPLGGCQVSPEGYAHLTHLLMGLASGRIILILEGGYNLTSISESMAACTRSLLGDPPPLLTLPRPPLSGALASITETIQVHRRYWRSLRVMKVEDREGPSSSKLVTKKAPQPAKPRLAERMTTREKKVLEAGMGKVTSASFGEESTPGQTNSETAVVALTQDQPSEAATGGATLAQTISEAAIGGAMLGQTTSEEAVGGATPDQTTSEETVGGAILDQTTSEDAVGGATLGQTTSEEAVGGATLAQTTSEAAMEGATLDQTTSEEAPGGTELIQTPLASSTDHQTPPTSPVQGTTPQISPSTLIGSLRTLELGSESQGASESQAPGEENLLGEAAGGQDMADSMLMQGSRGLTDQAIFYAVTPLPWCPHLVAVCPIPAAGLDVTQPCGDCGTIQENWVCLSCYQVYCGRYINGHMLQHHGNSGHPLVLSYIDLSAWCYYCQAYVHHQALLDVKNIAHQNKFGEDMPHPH

Compound: O=C(NCCCCC(=O)C(F)(F)F)c1nc(-c2nccs2)sc1C1CC1
IC50 (Histone deacetylase 4): 31.5 nM
Activity (RPMI-8226 [1]): 23.9%
viability at 1 µM (RPMI-8226 [2]): 28.2%
IC50 [3]: 120 nM
Activity (RPMI-8226 [4]): 50.7%
IC50 (LP-1): 370 nM
Activity (RPMI-8226 [5]): 15.4%
viability at 3 µM (RPMI-8226 [6]): 21.1%
Activity (RPMI-8226 [7]): 2.8%
IC50 [8]: 85 nM
Activity (RPMI-8226 [9]): Dose-dependent effect
viability at 0.3 µM (RPMI-8226 [10]): 57.8%
IC50 [11]: 64 nM
IC50 [12]: 390 nM
Activity (RPMI-8226 [13]): 7.7%
Activity (RPMI-8226 [14]): 13.4%
IC50 [15]: 1230 nM

Compound: O=C(CCCCCCC(=O)Nc1ccccc1)NO [VORINOSTAT]
IC50 [12]: 820 nM

Compound: Nc1ccccc1NC(=O)CCCCNC(=O)c1nc(-c2nccs2)sc1C1CC1
IC50 (Histone deacetylase 4): 2090 nM

Compound: O=C(NCCCCC(=O)C(F)(F)F)c1nc(-c2nc3c(s2)CCCC3)sc1C1CC1
IC50 (Histone deacetylase 4): 23.4 nM

Compound: O=C(NO)NCCCCNC(=O)c1nc(-c2nccs2)sc1C1CC1
IC50 (Histone deacetylase 4): > 10000 nM

Compound: O=C(NCCCCC(O)C(F)(F)F)c1nc(-c2nccs2)sc1C1CC1 (stereo not drawn)
IC50 (Histone deacetylase 4): > 10000 nM
IC50 (Histone deacetylase 3): 8860 nM
IC50 (Histone deacetylase 1): > 10000 nM
IC50 [16]: > 10000 nM

Results, then the molecule that gave them:

IC50 (Histone deacetylase 4): > 10000 nM
Compound: O=C(NCCCC(=O)C(F)(F)F)c1nc(-c2nccs2)sc1C1CC1

IC50 (Histone deacetylase 4): > 10000 nM
IC50 (Histone deacetylase 3): > 10000 nM
IC50 (Histone deacetylase 1): > 10000 nM
IC50 [16]: > 10000 nM
Compound: O=C(NCCCCCNC(=O)c1nc(-c2nccs2)sc1C1CC1)c1cccc(-c2noc(C(F)(F)F)n2)c1

IC50 (Histone deacetylase 4): 120 nM
Compound: CC(C)Cc1sc(-c2nccs2)nc1C(=O)NCCCCC(=O)C(F)(F)F

IC50 (Histone deacetylase 4): 32 nM
IC50 [16]: 23.4 nM
Compound: Cc1cnc(-c2nc(C(=O)NCCCCC(=O)C(F)(F)F)c(C3CC3)s2)s1

IC50 (Histone deacetylase 4): 68.2 nM
IC50 (Histone deacetylase 3): 65.1 nM
IC50 (Histone deacetylase 1): 66.1 nM
IC50 [16]: 58.4 nM
Compound: O=C(NCCCCC(=O)C(F)(F)F)c1nc(-c2nccs2)sc1Cc1ccccc1

IC50 (Histone deacetylase 4): 133 nM
Compound: O=C(NCCCCCC(=O)C(F)(F)F)c1nc(-c2nccs2)sc1C1CC1
